{
  "source": "patent US9220771B2",
  "about": "“Peptide for use in the treatment of breast cancer and/or bone metastases” (MERCK PATENT GMBH, priority 2010, dated 2015)",
  "key": {"[1]": {"tested_on": "MDA-MB-231 breast cancer bone metastases", "assay": "Experimental breast cancer bone metastases in nude rats: volumes of osteolytic lesions and soft tissue components by VCT and MRI", "assay_type": "in vivo, nude rats (RNU strain)", "conditions": "for mean relative volume of soft tissue components (STC), increase compared to initial value at day 30 / mean relative volume of osteolytic lesions (OL), increase compared to initial value at day 30: cilengitide 75 mg/kg i.p. five times per week from day 30; for mean relative volume of soft tissue components (STC), increase compared to initial value at day 30: MRI", "procedure": "For this purpose, nude rats bearing established breast cancer bone metastases are treated with cilengitide, a small molecule inhibitor of αvβ3 and αvβ5 integrins (75 mg/kg, five days per week; n=12 rats) and compared to vehicle treated control rats (n=12). In a longitudinal study, conventional magnetic resonance imaging (MRI) and flat panel volumetric computed tomography (VCT) are used to assess the volume of the soft tissue tumor and osteolysis, respectively, and dynamic contrastenhanced (DCE-) MRI is performed to determine functional parameters of the tumor vasculature reflecting blood volume and blood vessel permeability.\nNude rats (RNU strain) are obtained from Harlan-Winkelmann GmbH (Borchen, Germany) at the age of six weeks and housed in a specific pathogen-free environment in a mini barrier system of the central animal facility. Animals are kept under controlled conditions (21±2° C. room temperature, 60% humidity, 12 h light-dark rhythm) and offered autoclaved food and water ad libitum. Sub-confluent MDAMB- 231 cells are harvested using 0.05% Trypsin-EDTA (Gibco®; Invitrogen, Karlsruhe, Germany) counted on a Neubauer's chamber and resuspended in RPMI-1640 to a final concentration of 10^5 cells in 200 μl. Rats are anesthetized using a mixture of nitrous oxide (1 l/min), oxygen (0.5 l/min) and isoflurane (1.5 vol. %). Arterial branches of the right hind leg are dissected and 10^5 cells injected into the superficial epigastric artery as described previously.^28 Bone metastases established and are observed exclusively in the femur, tibia and fibula of the right hind leg. 30 days after cancer cell transplantation, rats (n=24) are randomly divided into two groups, one group receiving the cyclic RGD-peptide inhibitor of αvβ3/αvβ5 integrins (cilengitide, EMD 121974^14, 17, 29; Merck, Darmstadt, Germany) intraperitoneally five times per week in isotonic saline (75 mg/kg; n=12 rats) and the other, sham-treated group, serving as a control (n=12 rats). The observation period of all animals is 55 days and no rat in the study dies ahead of schedule.\nAfter the inoculation of cancer cells each rat is imaged at days 30, 35, 45 and 55 using (i) a flat-panel equipped volumetric computed tomograph (Volume CT, Siemens, Germany) and (ii) a 1.5T clinical magnetic resonance scanner (Symphony, Siemens, Erlangen, Germany) equipped with a home-built receive-transmit coil (cylindrical volume resonator with an inner diameter of 83 mm and a usable length of 120 mm). Prior to in vivo imaging with VCT and MRI, rats aree anesthetized with nitrous oxide, oxygen and isoflurane as described above.\nVCT imaging is obtained using the following parameters: tube voltage 80 kV, tube current 50 mA, scan time 51 s, rotation speed 10 s, frames per second 120, matrix 512×512, and slice thickness 0.2 mm. Image reconstructions are performed using a modified FDK (Feldkamp Davis Kress) cone beam reconstruction algorithm (kernel H80a; Afra, Erlangen, Germany).\n(§1) T2-weighted imaging is performed using a turbo spin echo sequence (orientation axial, TR 3240 ms, TE 81 ms, matrix 152×256, FOV 90×53.4 mm^2, slice thickness 1.5 mm, 3 averages, scan time 3 min 40 s). For dynamic contrast-enhanced MRI, a saturation recovery turbo flash sequence through the largest diameter of the tumor (orientation axial, TR 373 ms, TE 1.86 ms, matrix 192×144, FOV 130×97.5 mm, slice thickness 5 mm, measurements 512, averages 1, scan time 6 min 55 s) is used. After 20 s baseline, 0.1 mmol/kg Gd-DTPA (Magnevist; Bayer Schering Pharma, Berlin, Germany) is intravenously infused for a time period of 10 s.\nUnenhanced VCT images and MRI-acquired T2-weighted images are analyzed using the Medical Imaging Interaction Toolkit (MITK, Heidelberg, Germany) to determine volumes of osteolytic lesions and soft tissue components, respectively. […]"}, "[2]": {"tested_on": "MDA-MB-231 breast cancer bone metastases", "assay": "DCE-MRI of experimental breast cancer bone metastases (amplitude A, exchange rate constant kep)", "assay_type": "in vivo, nude rats (RNU strain)", "conditions": "cilengitide 75 mg/kg", "procedure": "as §1\nUnenhanced VCT images and MRI-acquired T2-weighted images are analyzed using the Medical Imaging Interaction Toolkit (MITK, Heidelberg, Germany) to determine volumes of osteolytic lesions and soft tissue components, respectively. DCE-MRI acquired data is analyzed using the Dynalab workstation (Mevis Research, Bremen, Germany) according to the two-compartment model of Brix to determine the parameters amplitude A and exchange rate constant kep, as described.^23, 30 Briefly, the injected contrast media is distributed in both compartments (intravascular space and extravascular, interstitial space). The accumulation of contrast agent in these compartments over time is characterized by the amplitude A (associated with blood volume), whereas the exchange of contrast agent between the intravascular space and the interstitial space is characterized by the exchange rate constant kep (associated with vessel permeability). For determination of the respective values of the amplitude A and kep of bone metastases in our study, a region of interest is placed around the soft tissue component on color maps for A and kep, respectively, using the Dynalab workstation (Mevis Research, Bremen, Germany).\nFor each animal, volumes of the osteolysis and soft tissue component, amplitude A and exchange rate constant kep are plotted versus time after tumor cell inoculation (due to technical reasons one animal of the control group can not be evaluated for the amplitude A and kep). Normalization of the data to the corresponding initial value at day 30 for each animal is performed and changes are expressed in percent. For statistical comparisons of data from non-invasive imaging and histological analysis, the respective values are compared between the control and treatment groups using the two-sided Wilcoxon-Test; p-values <0.05 are considered significant."}},
  "data": [
    {"smiles": "CC(C)[C@H]1C(=O)N[C@@H](CCCN=C(N)N)C(=O)NCC(=O)N[C@@H](CC(=O)O)C(=O)N[C@H](Cc2ccccc2)C(=O)N1C", "note": "[Cilengitide, cyclo-(Arg-Gly-Asp-DPhe-NMeVal)]", "values": [
      {"measurement": "mean relative volume of soft tissue components (STC), increase compared to initial value at day 30", "setting": "[1]; day 35", "value": 2.2, "unit": "fold"},
      {"measurement": "mean relative volume of osteolytic lesions (OL), increase compared to initial value at day 30", "setting": "[1]; day 35, VCT", "value": 1.5, "unit": "fold"},
      {"measurement": "mean relative volume of soft tissue components (STC), increase compared to initial value at day 30", "setting": "[1]; day 45, p<0.05 vs control", "value": 4.9, "unit": "fold"},
      {"measurement": "mean relative volume of osteolytic lesions (OL), increase compared to initial value at day 30", "setting": "[1]; day 45, VCT, p<0.05 vs control", "value": 2.4, "unit": "fold"},
      {"measurement": "mean relative volume of soft tissue components (STC), increase compared to initial value at day 30", "setting": "[1]; day 55, p<0.01 vs control", "value": 6.3, "unit": "fold"},
      {"measurement": "mean relative volume of osteolytic lesions (OL), increase compared to initial value at day 30", "setting": "[1]; day 55, VCT, p<0.01 vs control", "value": 3.5, "unit": "fold"},
      {"measurement": "rats showing new bone formation in the osteolytic lesion", "setting": "[1]; treatment group (three of 12 rats), cilengitide 75 mg/kg, VCT, not seen in controls", "value": 25, "unit": "%"},
      {"measurement": "DCE-MRI amplitude A (associated with blood volume), mean relative value", "setting": "[2]; day 35, p>0.05 vs control", "value": "97 % of initial value"},
      {"measurement": "DCE-MRI exchange rate constant kep (associated with vessel permeability), mean relative value", "setting": "[2]; day 35, p>0.05 vs control", "value": "69 % of initial value"},
      {"measurement": "DCE-MRI amplitude A (associated with blood volume), mean relative value", "setting": "[2]; day 45, p<0.05 vs control", "value": "102 % of initial value"},
      {"measurement": "DCE-MRI exchange rate constant kep (associated with vessel permeability), mean relative value", "setting": "[2]; day 45, p>0.05 vs control", "value": "88 % of initial value"},
      {"measurement": "DCE-MRI amplitude A (associated with blood volume), mean relative value", "setting": "[2]; day 55, p<0.05 vs control", "value": "93 % of initial value"},
      {"measurement": "DCE-MRI exchange rate constant kep (associated with vessel permeability), mean relative value", "setting": "[2]; day 55, p<0.05 vs control", "value": "72 % of initial value"}
    ]}
  ]
}
